Data taken from patent publication US20240025946A1, “Cyclic Tetrapeptides and Metal Complexes Thereof” (priority 2020, published 2024).
pIC50: −log10 of the molar value. Square brackets hold non-standard residues; d marks the D form. Ends that are not written are not given here. SAsp = aspartic acid substituted by -SH; β3hE = N[C@@H](CCC(=O)O)CC(=O)O; βAla = NCCC(=O)O

Assays:
[1] = test system: HT-29 cells; assay: In vitro recovery test: Pb detoxification of poisoned human cells, crystal violet; type: cell-based; conditions: for Recovery HT-29 (%): highest concentration 10 mM (5 equiv.), vs poisoned untreated cells, mean, SD
Method: (§1) Desalted peptides were then assessed for their ability to detoxify Pb (FIGS. 2a-d). The inventors designed two assays for rapid and reliable screening of potential CAs both in vivo on bacteria and then in vitro on human cell culture. Briefly, DH5a or HT-29 cells were first exposed to Pb(NO3)2 slightly below the minimal inhibitory concentration and then treated with various concentrations of the investigated CA, ranging from 0.1 to 10 equivalents. The viability of the cells was determined by colony counting or by crystal violet (Feoktistova et al, 2016), for the bacteria and the human cells, respectively, and was compared to poisoned cells that were not treated with any CA as the negative control. […] On the other hand, testing the compounds on human cells cannot be performed with insoluble compounds but is more relevant for medicinal purposes.
96-well plates were prepared such that every well contains 10,000 cells in 100 μL medium, and the cells were allowed to adhere overnight. To all wells but the positive control, 10 μL of 22 mM Pb(NO3)2 were added (final concentration 2 mM). 10 μL of H2O was added to the positive control wells. 60 min after addition of metal, 10 μL of each solution of the examined CA (2.4, 6, 12, 24, 48, and 120 mM) were added to reach final concentrations of 0.2, 0.5, 1, 2, 4, and 10 mM (which are 0.1, 0.25, 0.5, 1, 2, and 5 equivalents, respectively). To the positive control wells containing no metal and the negative control wells containing metal but no CA, 10 μL of H2O were added. Each condition was performed in triplicates. The plates were incubated at 37° C. and 5% CO2 for an additional 23 h, after which the medium was removed, washed with fresh medium and 50 μL of crystal violet solution (0.5% crystal violet powder in 20 mL MeOH and 80 mL H2O) to each well and the plates were gently shaken (60 rpm) for 20 min. The plates were then washed with H2O until no more unbound dye was observed and allowed to dry overnight. 200 μL of MeOH were added to each well, and the plates were gently shaken (60 rpm) for 20 min, after which their absorbance at 560 nm was read with a plate reader. The recovery of each concentration of CA was calculated according to equation 2:
(§2) A[CAx]—absorbance of the pre-toxified well in the presence of X mM of CA
(§3) A[blank]—absorbance of blank wells (contain nothing)
A[NEG]—absorbance of the pre-toxified well that contains no CA
(§4) Each experiment was performed on three independent occasions. Values are mean±SD of >3 repeats each performed in triplicate.

[2] = test system: DH5α E. coli; assay: In vivo recovery test: Pb detoxification of poisoned bacteria, colony counting; type: cell-based; conditions: for Recovery DH5α (%): highest concentration 120 mM (10 equiv.), Pb(NO3)2 12 mM, vs poisoned untreated cells, mean; for detoxification ability in poisoned E. coli (in words): compared to the benchmark compounds, FIG. 2a
Method: as §1
HRMS (ESI) m/z calculated for C16H26N4O4SNa^+ [M+Na]^+ 427.14442; found: 427.14447 In vivo recovery tests A single colony of DH5a E. coli WT cells was grown overnight at 37° C. and 220 rpm in Tris Minimal Medium (TMM, pH 6.0; 5 mL) without antibiotics. The culture was then diluted to an OD600 of 0.03 with additional TMM to a total volume of 5 mL, and its OD600 was monitored. Upon cell density of 0.25 (which was achieved after 3-5 h), 1 mL of the culture was transferred into a cell culture tube and was labeled as the positive control. To additional 3 mL of the culture, 36 μL of Pb(NO3)2 1 M were added (final concentration of 12 mM). Both cultures were shaken at 37° C. and 220 rpm for an additional 5 h.
Aqueous stock solutions of each CA were plated on freshly prepared agar-LB plates such that the final concentration of each compound is equal to 0.5, 1, 2, 5, and 10 equivalents, compared to the amount of Pb(NO3)2 in 50 μL pre-toxified culture. The stock solutions were prepared such that plating and equally spreading 30 μL of each solution will provide the desired amount of CA. To additional two plates, 30 μL of H2O was added.
50 μL of the pre-toxified culture were homogenously spread to each CA-containing plate, 5 h after adding the metal to the culture. The Pb-containing culture was also plated on one of the two H2O-containing plates and was labeled as the negative control. Lastly, 50 μL of the non-toxified culture were platted on the second H2O-containing plate and was labeled as positive control. All plates (positive and negative control and five plates for each examined compound) were then incubated at 37° C. overnight. The plates were then imaged, and the colonies were counted (with Vilber Quantum Visualization System). The recovery of each concentration of CA was calculated according to equation 1: […]
#CAx—number of colonies of pre-toxified culture in a plate containing X mM of CA
#NEG—number of colonies of pre-toxified culture in a plate containing no CA
as §4

[3] = test system: HT-29 cells; assay: In vitro toxicity test, crystal violet; type: cell-based, human; conditions: HT-29, 24 h; for pIC50: concentration at 50% viability, mean (SD), n.d. = not detected as it is too high
Method: 96-well plates were prepared such that every well contains 10,000 cells in 100 μL medium, and the cells were allowed to adhere overnight.
To all wells but the positive control, 10 μL of each solution of the examined CA (2.4, 6, 12, 24, 48, and 120 mM) were added to reach final concentrations of 0.2, 0.5, 1, 2, 4, and 10 mM. To the positive control wells, 10 μL of H2O was added. Each condition was performed in triplicates. The plates were incubated at 37° C. and 5% CO2 for 24 h, after which the medium was removed, washed with fresh medium and 50 μL of crystal violet solution (0.5% crystal violet powder in 20 mL MeOH and 80 mL H2O) to each well and the plates were gently shaken (60 rpm) for 20 min. The plates were then washed with H2O until no more unbound dye was observed and allowed to dry overnight. 200 μL of MeOH were added to each well, and the plates were gently shaken (60 rpm) for 20 min, after which their absorbance at 560 nm was read with a plate reader. The toxicity of each concentration of CA was calculated according to equation 3:
as §2, §3
A[POS]—absorbance of well that contains no CA
as §4

[4] = Aqueous solubility of the peptides; type: physicochemical
From the text: Attempts to solubilize them, including in different pH conditions, formulation with PEG or co-solvent systems with DMSO failed. Therefore, two analogs of 1 where βAla is substituted by PAsp or PhGlu, to form peptides 1a and 1b, respectively, were synthesized. […] Their low activity might be related to either (a) competition in coordination with Pb^2+ by the two carboxylates, which destabilizes the complexation, or (b) a decrease in their metal selectivity and coordination alkali or alkaline earth metal ions.

[5] = test system: male mice (C57BL/6); assay: Pb-poisoned mice: blood lead level and urinary Pb by ICP-MS; type: in vivo; conditions: for BLL / Urinary Pb (ppm): 30 mg kg^−1 day^−1, days 10-16; for BLL: blood on day 18, eight mice; for Urinary Pb (ppm): urine on day 18
Method: Peptide 8a was then tested in mice. 40 male mice (C57BL/6) aged 6-8 weeks were provided with 20 mM Pb(OAc)2 solution as the sole water supply for seven days (days 1-7). This poisoning route mimics chronic exposure in humans. Two days after returning to clean water (day 9), they were randomly divided into five groups of eight mice. They received a single treatment per day for seven days (days 10-16) of either CaNa2EDTA, DMSA, or 8a at a concentration of 30 mg kg^−1 except for group 1 that served as the negative control (Table 3).
Blood samples (100 μL) were collected before dosing the mice on days 10-15 and on day 18, which is two days after the last dosing and the day by which the experiment was terminated. Urine was also collected from 34 animals on day 18 and was kept frozen until analysis.

[6] = inhibition at the highest concentration (10 mM), mean, SD
[7] = also different pH, PEG formulation, DMSO co-solvent failed
[8] = soluble^b = with the addition of 2 equiv. NaOH or 1 equiv. of Ca(OH)2

Compound	Recovery DH5α (%) [2] [%]	Recovery HT-29 (%) ([1]; Pb(NO3)2 2 mM)	detoxification ability in poisoned E. coli (in words) [2]	Aqueous solubility [4, 8]	further results
O=C(O)CN(CCN(CC(=O)O)CC(=O)O)CC(=O)O [EDTA, ethylenediaminetetraacetic acid]					effect of the counter cation (Ca vs. Na salt) on detoxification activity ([1]; HT-29, FIG. 2d): higher activity as a Ca-salt
N[C@@H](CCC(=O)N[C@@H](CS)C(=O)NCC(=O)O)C(=O)O [GSH, glutathione]	39	126			pIC50 ([3]; Homo sapiens): 2.02; inhibition at 10000 µM ([3]; Homo sapiens, inhibition at the highest concentration (10 mM), mean, SD, read-out: Toxicity Maximal inhibition (%)): 57%
O=C([O-])CN(CCN(CC(=O)[O-])CC(=O)O)CC(=O)O.[Na+].[Na+] [Na2EDTA]	107	41			pIC50 [3]: 3.22; Toxicity Maximal inhibition (%) [3, 6]: 72%
O=C1CCNC(=O)[C@H](CS)NC(=O)CCNC(=O)[C@H](CS)N1 [compound 1, Cys-βAla-Cys-βAla]			outstanding results	insoluble	increase of recovery of poisoned E. coli ([2]; DH5α, treatment after Pb(NO3)2): more than 8 fold; Aqueous solubility [4, 7]: low aqueous solubility
CSCC[C@@H]1NC(=O)CCNC(=O)[C@H](CCSC)NC(=O)CCNC1=O [compound 3, Met-βAla-Met-βAla]	139			insoluble	
O=C1CCNC(=O)[C@H](Cc2c[nH]cn2)NC(=O)CCNC(=O)[C@H](Cc2c[nH]cn2)N1 [compound 4, His-βAla-His-βAla]	80	106		Soluble	pIC50 [3]: 2.24; Toxicity Maximal inhibition (%) [3, 6]: 62%
O=C(O)C[C@@H]1NC(=O)CCNC(=O)[C@H](CC(=O)O)NC(=O)CCNC1=O [compound 5, Asp-βAla-Asp-βAla]	150	121		soluble^b	Toxicity Maximal inhibition (%) [3, 6]: 44%
CSCC[C@@H]1NC(=O)CCNC(=O)[C@H](CS)NC(=O)CCNC1=O [compound 6, Cys-βAla-Met-βAla]			outstanding results	insoluble	Aqueous solubility [4, 7]: low aqueous solubility
O=C1CCNC(=O)[C@H](Cc2c[nH]cn2)NC(=O)CCNC(=O)[C@H](CS)N1 [compound 7, Cys-βAla-His-βAla]	47			insoluble	
O=C1CCNC(=O)[C@H](Cc2ccccc2)NC(=O)CCNC(=O)[C@H](CS)N1 [compound 9, Cys-βAla-Phe-βAla]	180			insoluble	
O=C1CCNC(=O)[C@@H](CS)NC(=O)CCNC(=O)[C@H](CS)N1 [peptide 2, Cys-βAla-DCys-βAla]			outstanding results	insoluble	Aqueous solubility [4, 7]: low aqueous solubility
[Cys-βhGlu]2 (C[β3hE]C[β3hE]; not fully specified (bridges); printed as [Cys-βhGlu]2; also: cyclic, ring type not given here) [1b, cyclic tetrapeptide]	30		unsatisfied	soluble^b	solubility as Na or Ca salts ([4]; Na or Ca salts): high solubility
cyc-[SAsp-βAla-Asp-βAla] (cyclo([SAsp][βAla]D[βAla])) [8a]					dose-dependent recovery of HT-29 cells (in words) ([1]; Pb(NO3)2 2 mM, CA added 1 h later, vs all investigated peptides and standards of care, FIG. 4): best results; removal of Pb in urine compared with the SOCs ([5]; IV and oral, vs CaNa2EDTA and DMSA, day 18): 1.3-2.2 folds; BLL ([5]; IV): 16.0 ± 1.5 µg/dL; Urinary Pb (ppm) ([5]; IV): 452 ± 47 ppm; Pb expelled in urine compared with the untreated group ([5]; IV, day 18): 2.9 folds; reduction of average BLL compared to no treatment ([5]; IV, day 18): 2.1 folds; reduction of average BLL compared with CaNa2EDTA ([5]; IV, day 18): 1.6 folds; BLL ([5]; Oral): 17.7 ± 1.3 µg/dL; Urinary Pb (ppm) ([5]; Oral): 435 ± 28 ppm; Pb expelled in urine compared with the untreated group ([5]; oral, day 18): 2.8 folds; reduction of BLL compared with DMSA ([5]; oral, day 18): 1.3 folds; reduction of BLL compared with no treatment ([5]; oral, day 18): 1.9 folds
